Laboratory results reported in patent US20230181746A1, “BENZOYLHYDRAZIDE-DERIVED HDAC DEGRADERS AS THERAPEUTICS FOR TREATING CANCER AND OTHER HUMAN DISEASES” (University of Florida Research Foundation, Inc., priority 2020, published 2023).

Experiments:
HDAC1 [1] = molecular target: T1, HDAC1 (Homo sapiens, UniProt Q13547); assay: HDAC1 protein level in breast cancer cell lines, Western blot; assay type: cell-based; conditions: MDA-MB-468 cells, 14 h
Procedure: (§1) FIG. 3A: Western blot showing HDAC protein levels in MDA-MB-468 cells treated with the indicated concentration of XZ9002 for 14 h. FIG. 3B: pretreatment with 1 μM MG132, or 10 μM VHL032 for 1 h blocked the degradation of HDAC3 by XZ9002 {125 nM}. […] NC: XZ9002-NC. FIG. 3C: time-dependent experiment in MDA-MB-468 cells after treatment with 125 nM XZ9002 at the indicated time points. FIG. 3D: MDA-MB-468 cells were incubated with 125 nM of XZ9002 for 14 h followed by drug washout, and incubation of the cells in drug-free medium for an additional time. Data are presented as representative figures of two independent experiments.
(§2) The culture of the triple-negative breast cancer cell line MDA-MB-468 and the ER+ breast cancer cell line T47D was exposed to vehicle control (DMSO) and the indicated compounds at specified concentrations for 14 h. Cells were lysed for WB with antibodies against the indicated proteins. Antibodies against acetylated histones at specific sites (H3K27 and H4K5) and acetyl-lysine were used to assess levels of histone acetylation. Levels of HDAC3 were normalized against that of tubulin and % of HDAC3 protein levels in cells treated with the indicated compounds relative to that in DMSO control is shown.
Cell lines were obtained from ATCC and subsequently authenticated. […]

HDAC1 [2] = molecular target: T1, HDAC1; assay: In vitro HDAC activity assay (HDAC-Glo I/II), HDAC1; assay type: biochemical; set-up: purchased Enzo Life Sciences BML-SE456-0050; conditions: average of three independent assays ± standard deviation
Procedure: Purified HDAC1, HDAC2, and HDAC3 (in complex with the deacetylase activation domain of the human NCOR2 (amino acids 395-498)) were obtained from Enzo Life Sciences (HDAC1, catalog # BML-SE456-0050) and BPS Bioscience (HDAC2, catalog #50002 and HDAC3, catalog #50003), respectively. The enzyme activities were tested using the HDAC-Glo I/II reagents (Promega) according to a protocol provided by the manufacturer.

HDAC2 = HDAC2 (Homo sapiens, UniProt Q92769); assay: HDAC2 protein level in breast cancer cell lines, Western blot; assay type: cell-based; conditions: MDA-MB-468 cells, 14 h
Chain of HDAC2 (Q92769 whole entry): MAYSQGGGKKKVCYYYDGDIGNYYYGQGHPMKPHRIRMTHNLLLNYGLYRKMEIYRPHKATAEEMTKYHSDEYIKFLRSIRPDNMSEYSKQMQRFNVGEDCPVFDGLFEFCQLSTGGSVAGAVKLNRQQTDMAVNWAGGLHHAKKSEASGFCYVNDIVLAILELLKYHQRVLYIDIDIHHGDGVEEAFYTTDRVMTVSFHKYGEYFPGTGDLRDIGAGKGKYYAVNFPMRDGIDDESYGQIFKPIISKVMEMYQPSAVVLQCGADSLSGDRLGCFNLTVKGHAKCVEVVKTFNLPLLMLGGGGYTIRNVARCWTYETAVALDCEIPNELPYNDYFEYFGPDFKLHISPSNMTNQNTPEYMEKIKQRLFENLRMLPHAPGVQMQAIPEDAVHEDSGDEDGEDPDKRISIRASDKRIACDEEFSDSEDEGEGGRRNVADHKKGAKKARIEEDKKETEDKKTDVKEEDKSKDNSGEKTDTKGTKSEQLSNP
Procedure: as §1, §2
FIGS. 8A-8B show the cellular activity of XZ9002. […] Cells were lysed for WB. The relative HDAC3 protein level in each sample is shown. […]

[3] = system: NCI-60 panel of 60 cancer lines; assay: NCI-60 cell line panel proliferation; assay type: cell-based; conditions: five doses; leukemia, NSCLC, colon, CNS, melanoma, ovarian, renal, prostate and breast cancer lines
Procedure: The indicated cancer cell lines were treated with XZ9002 at five different doses. The percentage growth relative to the cell numbers before compound exposure was plotted against the XZ9002 concentrations in the log scale.

[4] = system: breast cancer cell lines MCF7, T47D, MDA-MB-468, HCC-1143 and BT479; assay: Clonogenic growth assay, breast cancer cell lines; assay type: cell-based; conditions: compared with XZ9002-NC
Procedure: FIGS. 8A-8B show the cellular activity of XZ9002. […] Cells were lysed for WB. The relative HDAC3 protein level in each sample is shown. […] The indicated BC cell lines were exposed to DMSO, XZ9002, or XZ9002-NC at the indicated concentrations. Colonies were fixed and stained.
Cell lines were obtained from ATCC and subsequently authenticated. Cells were cultured with DMEM supplemented with 10% bovine calf serum, penicillin to 10 units/mL, and streptomycin to 10 μg/mL. For viability assays, 5,000 cells/well were seeded in 96-well plates. Compounds at a specified concentration or DMSO were added 24 h later. Viability assays were performed 72 h after compound addition using the CellTiter-Glo reagents (Promega). For colony formation assay, cells (˜1,000 cells/well) were seeded in a 24-well plate in quadruplicates. At 24 h after seeding, DMSO, XZ9002, or XZ9002-NC were added at a specified concentration. Medium was replaced with freshly prepared medium containing DMSO, XZ9002 or XZ9002-NC every five days until visible colonies appeared, typically in 15 to 20 days after initial cell seeding. Cells were fixed with 4% paraformaldehyde for 15 min and stained with 2% methylene blue in 20% ethanol for 30 min to 1 h. The cells were washed twice with distilled water and dried in air. For western blotting, cell cultures were exposed to compounds as indicated in relevant figures. […]

T1 sequence (Q13547 whole entry): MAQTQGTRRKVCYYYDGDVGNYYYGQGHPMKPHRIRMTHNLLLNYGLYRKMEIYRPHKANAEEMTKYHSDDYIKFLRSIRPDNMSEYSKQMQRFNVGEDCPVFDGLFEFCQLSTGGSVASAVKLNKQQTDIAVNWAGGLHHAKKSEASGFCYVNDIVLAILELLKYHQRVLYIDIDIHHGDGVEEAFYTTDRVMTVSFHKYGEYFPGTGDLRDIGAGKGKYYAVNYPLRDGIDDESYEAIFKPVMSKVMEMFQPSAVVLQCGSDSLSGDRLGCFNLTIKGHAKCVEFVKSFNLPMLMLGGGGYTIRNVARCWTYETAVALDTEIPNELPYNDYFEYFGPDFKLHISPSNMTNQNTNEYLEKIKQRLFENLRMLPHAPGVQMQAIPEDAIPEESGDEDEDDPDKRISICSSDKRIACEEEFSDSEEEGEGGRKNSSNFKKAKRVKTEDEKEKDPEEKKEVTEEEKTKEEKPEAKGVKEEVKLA

change in HDAC1 protein level (HDAC1 [1]): no significant changes
IC50 (HDAC1 [2]): 650 ± 70 nM
change in HDAC2 protein level (HDAC2): no significant changes
SMILES: CCCNNC(=O)c1ccc(-c2ccc(NC(=O)CCCCCCC(=O)N[C@H](C(=O)N3C[C@H](O)C[C@H]3C(=O)N[C@@H](C)c3ccc(-c4scnc4C)cc3)C(C)(C)C)cc2)cc1 [XZ9002, N^1—((S)-1-((2S,4R)-4-hydroxy-2-(((S)-1-(4-(4-methylthiazol-5-yl)phenyl)ethyl)carbamoyl)pyrrolidin-1-yl)-3,3-dimethyl-1-oxobutan-2-yl)-N^5-(4′-(2-propylhydrazine-1-carbonyl)-[1,1′-biphenyl]-4-yl)octanediamide]
inhibition of proliferation [3]: effectively inhibits the proliferation
suppression of colony formation [4]: more potent to suppress colony formation
